Assay results reported in PubChem BioAssay (NCI).
Values joined by “and” are separate entries in the source; they are usually repeats but may differ in a detail not shown here. Equal entries are not always repeated.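 1) Cells in 96-well plates. 2) Compound, 48 h, 5 concentrations. 3) Linear interpolation between surrounding doses. 4) Unreached endpoint = highest concentration. GI50 marks 50% less growth. TGI is the concentration that stops growth completely.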

Assays:
Test in all cases: inhibition of tumour cell growth, NCI panel, 48 h
ACHN renal = test system: ACHN renal
COLO 205 colon = test system: COLO 205 colon
HS 578T breast = test system: HS 578T breast
MDA-MB-435 = test system: MDA-MB-435
NCI-H460 lung = test system: NCI-H460 lung
OVCAR-4 ovarian = test system: OVCAR-4 ovarian
PC-3 prostate = test system: PC-3 prostate
SF-539 CNS = test system: SF-539 CNS
SK-MEL-28 melanoma = test system: SK-MEL-28 melanoma
EKVX NSCLC = test system: EKVX NSCLC

Compound	GI50 (ACHN renal)	TGI (ACHN renal)	GI50 (COLO 205 colon)	TGI (COLO 205 colon)	GI50 (HS 578T breast)	TGI (HS 578T breast)	GI50 (MDA-MB-435)	TGI (MDA-MB-435)	GI50 (NCI-H460 lung)	TGI (NCI-H460 lung)	GI50 (OVCAR-4 ovarian)	TGI (OVCAR-4 ovarian)	GI50 (PC-3 prostate)	TGI (PC-3 prostate)	GI50 (SF-539 CNS)	TGI (SF-539 CNS)	GI50 (SK-MEL-28 melanoma)	TGI (SK-MEL-28 melanoma)	TGI (EKVX NSCLC)	GI50 (EKVX NSCLC)
O=C(CCCN1CCOCC1)Nc1ccc(Cn2nnc3c2C(=O)c2nnn(Cc4ccc(NC(=O)CCCN5CCOCC5)cc4)c2C3=O)cc1	> 100 µM	> 100 µM	0.982 µM	2.43 µM	2.79 µM	7.76 µM	1.65 µM	3.08 µM	2.07 µM	> 100 µM	1.25 µM	2.51 µM	3.67 µM	> 100 µM	2.17 µM	4.71 µM	3.93 µM	> 100 µM		
O=C1OCCC1C(O)C1c2ccccc2-c2ccccc21 (centres undefined)		> 100 µM		> 100 µM						> 100 µM		> 100 µM						> 100 µM	> 100 µM	
OCC1OC(OCC(O)C(O)C(O)C(/C=N/Nc2ccccc2)=N/Nc2ccccc2)C(O)C(O)C1O (centres undefined)		> 100 µM		> 100 µM		> 100 µM		> 100 µM		> 100 µM				> 100 µM		> 100 µM		> 100 µM	> 100 µM	
CN=C(NC#N)NCCSCc1nc[nH]c1C		> 100 µM		> 100 µM		> 100 µM		> 100 µM		> 100 µM		> 100 µM		> 100 µM		> 100 µM		> 100 µM		
O=C(CSC(c1ccccc1)c1ccccc1)N/N=C/c1cccc(Cl)c1	13.7 µM	26.6 µM			15.7 µM	38.2 µM	22.5 µM	43.7 µM	17.6 µM	34.8 µM	15 µM	30.8 µM	19.4 µM	35.7 µM	18.8 µM	33.3 µM			35.9 µM	16.3 µM
C=CC[P+](c1ccccc1)(c1ccccc1)c1ccccc1	> 100 µM	> 100 µM	2.66 µM	14.1 µM	10.1 µM	> 100 µM	2.07 µM	19.3 µM	4.54 µM	> 100 µM	2.84 µM	> 100 µM	1.78 µM	33.5 µM	8.42 µM	> 100 µM	11.3 µM	> 100 µM		
CC1(C)CCc2cc3c(cc2O1)OCC1c2cc4c(cc2OC31)OCO4 (centres undefined)		> 100 µM		> 100 µM						> 100 µM		> 100 µM				> 100 µM			> 100 µM	
CCOc1cc2c(cc1O)/C(=N\O)C[C@@H]1[C@@H]2CC[C@]2(C)[C@@H](O)CC[C@@H]12	0.024 µM	> 49.5 µM	0.00176 µM		0.0271 µM	> 82.9 µM				1.47 µM	8.67 µM	> 100 µM	0.767 µM and 0.491 µM	> 100 µM	0.0269 µM		0.0143 µM	> 53.5 µM	> 100 µM	0.0582 µM
O=C([O][Hg][CH2]C1COC([CH2][Hg][O]C(=O)c2ccccc2)CO1)c1ccccc1 (centres undefined)	8.92 µM and 1.67 µM	20.7 µM and 3.08 µM	1.98 µM and 1.07 µM	4.25 µM and 5.21 µM	21.8 µM	82.6 µM			17.3 µM and 3.49 µM	33.4 µM and 21.6 µM	11.3 µM	25.2 µM	15.3 µM		15.8 µM and 14.4 µM	29.7 µM and 30.5 µM	15.9 µM and 1.75 µM	29.5 µM and 3.19 µM	35.8 µM and 34.9 µM	20.7 µM and 19.5 µM
COc1ccc2c(c1)[n+]([O-])c(-c1ccccc1)c(N)[n+]2[O-]		> 100 µM		44.4 µM						> 100 µM		> 100 µM				> 100 µM		69.3 µM	> 100 µM	
Oc1ccc(O)c(-c2cc(-c3ccccc3)nn2-c2ccccc2)c1	14.4 µM	29.7 µM	24.9 µM	> 100 µM	19.6 µM	68 µM	18.4 µM	> 100 µM	24.8 µM	> 100 µM			16.7 µM	> 100 µM			40.8 µM	> 100 µM	37.7 µM	16.9 µM
Cc1ccc(Nc2n[nH]c(=S)s2)cc1		> 100 µM		> 100 µM		> 100 µM		> 100 µM		> 100 µM				> 100 µM		> 100 µM		> 100 µM	> 100 µM	
CC(=O)c1cccc(NC(=O)C(=O)C(C2OC(=O)c3ccccc32)[N+](=O)[O-])c1 (centres undefined)		> 100 µM		> 100 µM						> 100 µM		> 100 µM				> 100 µM		> 100 µM	> 100 µM	
COc1ccc(N=Nc2c(-c3ccccc3)nn(C(=O)CC(=O)Nc3cccc(Cl)c3)c2-c2ccccc2)cc1		> 100 µM		> 100 µM						> 100 µM		> 100 µM				> 100 µM		> 100 µM	> 100 µM	
Cc1noc(C)c1-c1cc(O)cc(C(O)c2ccccc2)c1 (centres undefined)	4.76 µM	> 100 µM	5.25 µM	> 100 µM	1.93 µM	90.7 µM	3.48 µM	> 100 µM	25.1 µM	> 100 µM	6.35 µM	> 100 µM			4.56 µM	> 100 µM	9.15 µM	> 100 µM		
COc1ccc(-c2nn(-c3cccc(NC(=O)c4ccc5c(c4)OCCO5)c3)cc2-c2ccncc2)cc1Cl	3.82 µM	> 100 µM	1.84 µM	4.64 µM	1.61 µM	8.13 µM			2.67 µM	15.6 µM	4.39 µM	> 100 µM	2.12 µM	18.1 µM	1.41 µM	3.48 µM	1.9 µM	11.6 µM		
CC(C)(C)CC(C)(C)c1cc2c(O)c(c1)Cc1cc(C(C)(C)CC(C)(C)C)cc(c1O)Cc1cc(C(C)(C)CC(C)(C)C)cc(c1O)Cc1cc(C(C)(C)CC(C)(C)C)cc(c1O)Cc1cc(C(C)(C)CC(C)(C)C)cc(c1O)Cc1cc(C(C)(C)CC(C)(C)C)cc(c1O)C2		> 100 µM		> 100 µM						> 100 µM		> 100 µM				> 100 µM		> 100 µM	> 100 µM	
